Key:
Format in all cases: cell-based, human
[1] = system: MDA-MB-31/ATCC; experiment: NCI-60 screen, Breast Cancer; settings: 10 μM, MDA-MB-231/ATCC
Procedure: (§1) Several compounds were tested at single concentrations (10 μM) against 59 different human tumor cell lines, representing leukemia, melanoma and cancers of the lung, colon, brain, ovary, breast, prostate, and kidney (see, Table 3). The human tumor cell lines of the cancer screening panel were grown in RPMI 1640 medium containing 5% fetal bovine serum and 2 mM L-glutamine. For a typical screening experiment, cells were inoculated into 96 well microtiter plates in 100 μL at plating densities ranging from 5,000 to 40,000 cells/well depending on the doubling time of individual cell lines. After cell inoculation, the microtiter plates were incubated at 37° C., 5% CO2, 95% air and 100% relative humidity for 24 hours prior to addition of the compounds.
(§2) After 24 hours, two plates of each cell line were fixed in situ with TCA, to represent a measurement of the cell population for each cell line at the time of drug addition (Tz). Compounds were solubilized in dimethyl sulfoxide at 400-fold the desired final maximum test concentration and stored frozen prior to use. At the time of drug addition, an aliquot of frozen concentrate was thawed and diluted to twice the desired final maximum test concentration with complete medium containing 50 μg/ml gentamicin. Additional four, 10-fold or ½ log serial dilutions were made to provide a total of five compound concentrations plus control. Aliquots of 100 μl of these different drug dilutions were added to the appropriate microtiter wells already containing 100 μl of medium, resulting in the required final compound concentrations.
(§3) Following drug addition, the plates were incubated for an additional 48 hours at 37° C., 5% CO2, 95% air, and 100% relative humidity. For adherent cells, the assay was terminated by the addition of cold TCA. Cells were fixed in situ by the gentle addition of 50 μl of cold 50% (w/v) TCA (final concentration, 10% TCA) and incubated for 60 minutes at 4° C. The supernatant was discarded, and the plates were washed five times with tap water and air dried. Sulforhodamine B (SRB) solution (100 μl) at 0.4% (w/v) in 1% acetic acid was added to each well, and plates were incubated for 10 minutes at room temperature. After staining, unbound dye was removed by washing five times with 1% acetic acid and the plates were air dried. Bound stain was subsequently solubilized with 10 mM trizma base, and the absorbance was read on an automated plate reader at a wavelength of 515 nm. For suspension cells, the methodology was the same except that the assay was terminated by fixing settled cells at the bottom of the wells by gently adding 50 μl of 80% TCA (final concentration, 16% TCA). Using the seven absorbance measurements (time zero, (Tz), control growth, (C), and test growth in the presence of drug at the five concentration levels (Ti)), the percentage growth was calculated at each of the compound concentrations levels. Percentage growth inhibition was calculated as:
(§4) [(Ti−Tz)/(C−Tz)]×100 for concentrations for which Ti>/=Tz
(§5) [(Ti−Tz)/Tz]×100 for concentrations for which Ti<Tz.
(§6) Three dose response parameters were calculated for each compound. Growth inhibition of 50% (GI50) was calculated from [(Ti−Tz)/(C−Tz)]×100=50, which is the compound concentration resulting in a 50% reduction in the net protein increase (as measured by SRB staining) in control cells during the compound incubation. The compound concentration resulting in total growth inhibition (TGI) was calculated from Ti=Tz. The LC50 (concentration of compound resulting in a 50% reduction in the measured protein at the end of the compound treatment as compared to that at the beginning) indicating a net loss of cells following treatment was calculated from [(Ti−Tz)/Tz]×100=−50. Values were calculated for each of these three parameters if the level of activity was reached; however, if the effect was not reached or was exceeded, the value for that parameter was expressed as greater or less than the maximum or minimum concentration tested.

[2] = system: HOP-92; experiment: NCI-60 screen, Non-Small Cell Lung Cancer; settings: 10 μM
Procedure: as §1, §2, §3, §4, §5, §6

[3] = system: HOP-62; experiment: NCI-60 screen, Non-Small Cell Lung Cancer; settings: 10 μM
Procedure: as §1, §2, §3, §4, §5, §6

[4] = system: A549/ATCC; experiment: NCI-60 screen, Non-Small Cell Lung Cancer; settings: 10 μM
Procedure: as §1, §2, §3, §4, §5, §6

[5] = system: NCI-H460; experiment: NCI-60 screen, Non-Small Cell Lung Cancer; settings: 10 μM
Procedure: as §1, §2, §3, §4, §5, §6

[6] = system: EKVX; experiment: NCI-60 screen, Non-Small Cell Lung Cancer; settings: 10 μM
Procedure: as §1, §2, §3, §4, §5, §6

[7] = system: NCI-H226; experiment: NCI-60 screen, Non-Small Cell Lung Cancer; settings: 10 μM
Procedure: as §1, §2, §3, §4, §5, §6

[8] = system: NCI-H322M; experiment: NCI-60 screen, Non-Small Cell Lung Cancer; settings: 10 μM
Procedure: as §1, §2, §3, §4, §5, §6

[9] = system: NCI-H23; experiment: NCI-60 screen, Non-Small Cell Lung Cancer; settings: 10 μM
Procedure: as §1, §2, §3, §4, §5, §6

[10] = system: NCI-H522; experiment: NCI-60 screen, Non-Small Cell Lung Cancer; settings: 10 μM
Procedure: as §1, §2, §3, §4, §5, §6

[11] = system: CCRF-CEM; experiment: NCI-60 screen, Leukemia; settings: 10 μM
Procedure: as §1, §2, §3, §4, §5, §6

[12] = system: PC-3; experiment: NCI-60 screen, Prostate Cancer; settings: 10 μM
Procedure: as §1, §2, §3, §4, §5, §6

[13] = system: DU-145; experiment: NCI-60 screen, Prostate Cancer; settings: 10 μM
Procedure: as §1, §2, §3, §4, §5, §6

[14] = system: U251; experiment: NCI-60 screen, CNS Cancer; settings: 10 μM
Procedure: as §1, §2, §3, §4, §5, §6

[15] = system: SNB-75; experiment: NCI-60 screen, CNS Cancer; settings: 10 μM
Procedure: as §1, §2, §3, §4, §5, §6

[16] = system: SF-268; experiment: NCI-60 screen, CNS Cancer; settings: 10 μM
Procedure: as §1, §2, §3, §4, §5, §6

[17] = system: SF-539; experiment: NCI-60 screen, CNS Cancer; settings: 10 μM
Procedure: as §1, §2, §3, §4, §5, §6

[18] = system: SNB-19; experiment: NCI-60 screen, CNS Cancer; settings: 10 μM
Procedure: as §1, §2, §3, §4, §5, §6

[19] = system: SF-295; experiment: NCI-60 screen, CNS Cancer; settings: 10 μM
Procedure: as §1, §2, §3, §4, §5, §6

[20] = system: KM12; experiment: NCI-60 screen, Colon Cancer; settings: 10 μM
Procedure: as §1, §2, §3, §4, §5, §6

[21] = system: HT29; experiment: NCI-60 screen, Colon Cancer; settings: 10 μM
Procedure: as §1, §2, §3, §4, §5, §6

[22] = system: HCC-2998; experiment: NCI-60 screen, Colon Cancer; settings: 10 μM
Procedure: as §1, §2, §3, §4, §5, §6

[23] = system: COLO 205; experiment: NCI-60 screen, Colon Cancer; settings: 10 μM
Procedure: as §1, §2, §3, §4, §5, §6

[24] = system: HCT-116; experiment: NCI-60 screen, Colon Cancer; settings: 10 μM
Procedure: as §1, §2, §3, §4, §5, §6

[25] = system: HCT-15; experiment: NCI-60 screen, Colon Cancer; settings: 10 μM
Procedure: as §1, §2, §3, §4, §5, §6

[26] = system: SW-620; experiment: NCI-60 screen, Colon Cancer; settings: 10 μM
Procedure: as §1, §2, §3, §4, §5, §6

N=C(N)NCCCCC(=O)Nc1cc(C(F)(F)F)cc(NC(=O)Nc2ccc(NC(=O)Nc3cc(C(F)(F)F)cc(NC(=O)CCCCNC(=N)N)c3OC3CCNC3)cc2)c1OC1CCNC1 (stereo not drawn) [Compound B]
Percent Growth [1]: 73.02%
Percent Growth [2]: 81.51%
Percent Growth [3]: 23.47%
Percent Growth [4]: 49.78%
Percent Growth [5]: 50.72%
Percent Growth [6]: 61.92%
Percent Growth [7]: 51.21%
Percent Growth [8]: 80.76%
Percent Growth [9]: 77.57%
Percent Growth [10]: −11.87%
Percent Growth [11]: 60.57%
Percent Growth [12]: 59.59%
Percent Growth [13]: 70.36%
Percent Growth [14]: 37.71%
Percent Growth [15]: 19.48%
Percent Growth [16]: 49.93%
Percent Growth [17]: 30.8%
Percent Growth [18]: 49.16%
Percent Growth [19]: 38.86%
Percent Growth [20]: 24.16%
Percent Growth [21]: 59.66%
Percent Growth [22]: 75.82%
Percent Growth [23]: 55.41%
Percent Growth [24]: 45.1%
Percent Growth [25]: 61.39%
Percent Growth [26]: 69.71%

N=C(N)NCCCCC(=O)Nc1cc(C(F)(F)F)cc(NC(=O)c2cc(C(=O)Nc3cc(C(F)(F)F)cc(NC(=O)CCCCNC(=N)N)c3SCCN)ncn2)c1SCCN [Compound C]
Percent Growth [1]: 81.52%
Percent Growth [2]: 93.99%
Percent Growth [3]: 37.78%
Percent Growth [4]: 37.26%
Percent Growth [5]: 28.72%
Percent Growth [6]: 59.82%
Percent Growth [7]: 63.82%
Percent Growth [8]: 83.13%
Percent Growth [9]: 80.24%
Percent Growth [10]: −26.87%
Percent Growth [11]: 24.46%
Percent Growth [12]: 77.68%
Percent Growth [13]: 62.89%
Percent Growth [14]: 31.28%
Percent Growth [15]: 22.47%
Percent Growth [16]: 53.24%
Percent Growth [17]: 70.3%
Percent Growth [18]: 47.25%
Percent Growth [19]: 39.81%
Percent Growth [20]: −39.48%
Percent Growth [21]: 17.03%
Percent Growth [22]: 54.2%
Percent Growth [23]: −73.2%
Percent Growth [24]: 37.88%
Percent Growth [25]: 33.27%
Percent Growth [26]: 34.39%

NCCc1cc(Br)cc(C#Cc2cccc(C#Cc3cc(Br)cc(CCN)c3)c2)c1 [Compound A]
Percent Growth [1]: 4.31%
Percent Growth [2]: 73.03%
Percent Growth [3]: 21.99%
Percent Growth [4]: −15.97%
Percent Growth [5]: −49.11%
Percent Growth [6]: 62.48%
Percent Growth [7]: 108.9%
Percent Growth [8]: 53%
Percent Growth [9]: 94.81%
Percent Growth [10]: −78.21%
Percent Growth [11]: −12.43%
Percent Growth [12]: 45.26%
Percent Growth [13]: −83.92%
Percent Growth [14]: −64.65%
Percent Growth [15]: −2.087%
Percent Growth [16]: 61.55%
Percent Growth [18]: 27.06%
Percent Growth [19]: 3.17%
Percent Growth [20]: −87.53%
Percent Growth [21]: −89.31%
Percent Growth [22]: 54.09%
Percent Growth [23]: 1.203%
Percent Growth [24]: −45.86%
Percent Growth [25]: 11.61%
Percent Growth [26]: −73.58%

NCCCc1cccc(-c2ccc3oc4ccc(-c5cccc(CCCN)c5)cc4c3c2)c1 [Compound G]
Percent Growth [1]: 37.19%
Percent Growth [2]: 61.6%
Percent Growth [3]: 72.69%
Percent Growth [5]: 23.91%
Percent Growth [6]: 81.69%
Percent Growth [7]: 104.4%
Percent Growth [8]: 108.3%
Percent Growth [9]: 99.38%
Percent Growth [10]: 69.45%
Percent Growth [11]: 9.165%
Percent Growth [12]: 54.99%
Percent Growth [13]: −23.65%
Percent Growth [15]: 66.47%
Percent Growth [16]: 75.18%
Percent Growth [17]: 86.73%
Percent Growth [18]: 88.57%
Percent Growth [19]: 65.4%
Percent Growth [20]: 14.01%
Percent Growth [21]: −51.14%
Percent Growth [22]: 81.22%
Percent Growth [23]: 26.37%
Percent Growth [24]: −37.99%
Percent Growth [25]: 49.71%
Percent Growth [26]: −7.997%

NCCSc1cc(SCCN)c(C(F)(F)F)cc1NC(=O)c1cc(C(=O)Nc2cc(C(F)(F)F)c(SCCN)cc2SCCN)ncn1 [Compound F]
Percent Growth [1]: 18.87%
Percent Growth [2]: −24.05%
Percent Growth [3]: 29.35%
Percent Growth [4]: 15.81%
Percent Growth [5]: 47.73%
Percent Growth [6]: 75.72%
Percent Growth [7]: 66.85%
Percent Growth [8]: 55.48%
Percent Growth [9]: 60.86%
Percent Growth [10]: −2.5%
Percent Growth [11]: 99.09%
Percent Growth [12]: 46.61%
Percent Growth [13]: 51.97%
Percent Growth [14]: 23.67%
Percent Growth [15]: −20.24%
Percent Growth [16]: 32.42%
Percent Growth [17]: 65.73%
Percent Growth [18]: 49.54%
Percent Growth [19]: 57.66%
Percent Growth [20]: 7.63%
Percent Growth [21]: 56.34%
Percent Growth [22]: 31.93%
Percent Growth [23]: 126%
Percent Growth [24]: 32.41%
Percent Growth [25]: 62.31%
Percent Growth [26]: 18.57%

c1cc(-c2ccc3sc4ccc(-c5ccnc(N6CCNCC6)c5)cc4c3c2)cc(N2CCNCC2)n1 [Compound E]
Percent Growth [1]: −41.26%
Percent Growth [2]: 32.76%
Percent Growth [3]: −80.18%
Percent Growth [4]: −77.24%
Percent Growth [5]: −78.46%
Percent Growth [6]: 22.56%
Percent Growth [7]: 39.89%
Percent Growth [8]: −53.02%
Percent Growth [9]: 52.19%
Percent Growth [10]: −93.93%
Percent Growth [11]: −64.03%
Percent Growth [12]: −85.11%
Percent Growth [13]: −97.96%
Percent Growth [14]: −85.72%
Percent Growth [15]: −94.79%
Percent Growth [16]: −37.05%
Percent Growth [17]: 14.26%
Percent Growth [18]: −43.97%
Percent Growth [19]: −50.65%
Percent Growth [20]: −87.84%
Percent Growth [21]: −87.5%
Percent Growth [22]: −9.443%
Percent Growth [23]: −59.52%
Percent Growth [24]: −48.52%
Percent Growth [25]: −54.01%
Percent Growth [26]: −87.3%
